In patent US20240398784A1, “C-LINKED ISOQUINOLINE AMIDES AS LRRK2 INHIBITORS, PHARMACEUTICAL COMPOSITIONS, AND USES THEREOF” (Merck Sharp & Dohme LLC, priority 2021, published 2024):

Molecular target: LRRK2 G2019S (Homo sapiens, UniProt Q5S007, G2019S)
Experiment: LRRK2 G2019S Km ATP LanthaScreen assay
Assay type: biochemical
Details: for IC50: read-out: LRRK2 pIC50 (converted)

Sequence of LRRK2 G2019S (Q5S007 whole entry G2019S): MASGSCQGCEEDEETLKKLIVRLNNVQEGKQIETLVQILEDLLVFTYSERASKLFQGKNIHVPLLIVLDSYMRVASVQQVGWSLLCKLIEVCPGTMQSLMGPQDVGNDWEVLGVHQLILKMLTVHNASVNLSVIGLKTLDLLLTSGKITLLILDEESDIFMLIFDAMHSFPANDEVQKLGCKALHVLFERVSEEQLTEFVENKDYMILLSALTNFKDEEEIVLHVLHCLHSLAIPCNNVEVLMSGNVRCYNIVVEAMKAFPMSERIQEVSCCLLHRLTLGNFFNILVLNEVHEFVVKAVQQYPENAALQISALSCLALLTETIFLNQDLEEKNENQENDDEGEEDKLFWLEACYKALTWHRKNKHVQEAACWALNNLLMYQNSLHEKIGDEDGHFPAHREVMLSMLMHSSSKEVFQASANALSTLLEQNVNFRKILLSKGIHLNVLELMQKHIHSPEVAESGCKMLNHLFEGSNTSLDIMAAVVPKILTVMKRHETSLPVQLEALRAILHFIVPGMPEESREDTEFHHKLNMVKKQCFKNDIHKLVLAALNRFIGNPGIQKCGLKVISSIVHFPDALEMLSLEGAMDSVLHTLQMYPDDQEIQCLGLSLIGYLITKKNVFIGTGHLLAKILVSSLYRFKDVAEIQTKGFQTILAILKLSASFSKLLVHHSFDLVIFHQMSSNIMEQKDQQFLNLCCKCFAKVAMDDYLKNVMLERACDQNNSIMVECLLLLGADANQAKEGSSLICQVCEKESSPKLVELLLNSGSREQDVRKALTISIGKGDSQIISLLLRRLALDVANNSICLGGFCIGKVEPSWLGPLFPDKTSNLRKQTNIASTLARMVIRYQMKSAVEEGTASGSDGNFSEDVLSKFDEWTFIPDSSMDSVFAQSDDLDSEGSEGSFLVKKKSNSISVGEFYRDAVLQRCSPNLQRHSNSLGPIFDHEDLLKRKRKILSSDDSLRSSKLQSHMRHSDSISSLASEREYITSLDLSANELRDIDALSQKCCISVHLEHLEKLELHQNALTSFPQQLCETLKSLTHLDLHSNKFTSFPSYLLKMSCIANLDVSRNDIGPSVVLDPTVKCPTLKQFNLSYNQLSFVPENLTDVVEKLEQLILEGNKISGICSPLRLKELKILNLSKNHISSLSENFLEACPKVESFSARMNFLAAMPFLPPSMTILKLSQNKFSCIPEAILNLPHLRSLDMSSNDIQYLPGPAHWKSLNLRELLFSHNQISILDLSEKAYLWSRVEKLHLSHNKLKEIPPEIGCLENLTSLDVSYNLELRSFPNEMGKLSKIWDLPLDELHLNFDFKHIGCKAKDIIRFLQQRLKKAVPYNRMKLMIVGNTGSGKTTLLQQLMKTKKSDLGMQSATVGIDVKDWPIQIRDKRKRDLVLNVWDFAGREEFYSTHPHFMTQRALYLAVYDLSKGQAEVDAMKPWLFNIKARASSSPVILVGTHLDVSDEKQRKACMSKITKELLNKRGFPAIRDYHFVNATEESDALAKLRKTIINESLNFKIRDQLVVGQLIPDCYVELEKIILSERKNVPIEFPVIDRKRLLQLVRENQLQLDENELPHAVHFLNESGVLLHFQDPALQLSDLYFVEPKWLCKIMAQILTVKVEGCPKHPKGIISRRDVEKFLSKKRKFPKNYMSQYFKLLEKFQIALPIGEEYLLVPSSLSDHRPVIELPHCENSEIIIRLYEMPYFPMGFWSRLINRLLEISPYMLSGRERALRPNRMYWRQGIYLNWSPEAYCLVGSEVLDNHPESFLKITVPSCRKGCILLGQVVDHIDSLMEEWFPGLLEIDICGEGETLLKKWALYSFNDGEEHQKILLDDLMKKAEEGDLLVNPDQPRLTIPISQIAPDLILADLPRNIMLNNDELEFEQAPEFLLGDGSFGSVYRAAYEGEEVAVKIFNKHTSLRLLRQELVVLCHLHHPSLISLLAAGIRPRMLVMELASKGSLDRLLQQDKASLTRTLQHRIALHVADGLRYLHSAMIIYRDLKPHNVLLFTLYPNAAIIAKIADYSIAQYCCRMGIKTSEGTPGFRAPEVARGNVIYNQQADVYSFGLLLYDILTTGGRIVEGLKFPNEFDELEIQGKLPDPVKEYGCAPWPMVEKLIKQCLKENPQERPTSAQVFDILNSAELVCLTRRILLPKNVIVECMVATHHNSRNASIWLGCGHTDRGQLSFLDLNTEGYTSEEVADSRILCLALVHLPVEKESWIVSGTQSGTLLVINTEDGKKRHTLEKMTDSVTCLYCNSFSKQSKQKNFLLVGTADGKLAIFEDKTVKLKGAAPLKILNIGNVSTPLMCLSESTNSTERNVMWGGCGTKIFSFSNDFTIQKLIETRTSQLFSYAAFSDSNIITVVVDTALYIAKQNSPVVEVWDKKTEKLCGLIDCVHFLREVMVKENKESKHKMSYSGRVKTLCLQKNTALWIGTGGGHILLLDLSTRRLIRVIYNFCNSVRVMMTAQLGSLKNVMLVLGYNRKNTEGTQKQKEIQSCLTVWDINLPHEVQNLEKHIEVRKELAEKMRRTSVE

CC(C)(O)C1CC1C(=O)Nc1cc2cc(C3CCN(C4(C)COCC4F)CC3)c(Cl)cc2cn1 (single isomer, unassigned) [Ex-6.26, N-(7-chloro-6-(1-(4-fluoro-3-methyltetrahydrofuran-3-yl)piperidin-4-yl)isoquinolin-3-yl)-2-(2-hydroxypropan-2-yl)cyclopropane-1-carboxamide]
IC50: 0.234 nM

CC(C)(O)C1CC1C(=O)Nc1cc2cc(C3CCN(C4(C)COCC4F)CC3)c(Cl)cc2cn1 (single isomer, unassigned) [Ex-6.27, N-(7-chloro-6-(1-(4-fluoro-3-methyltetrahydrofuran-3-yl)piperidin-4-yl)isoquinolin-3-yl)-2-(2-hydroxypropan-2-yl)cyclopropane-1-carboxamide]
IC50: 112 nM

CC(C)(O)C1CC1C(=O)Nc1cc2cc(C3CCN(C4(C)COCC4F)CC3)c(Cl)cc2cn1 (single isomer, unassigned) [Ex-6.28, N-(7-chloro-6-(1-(4-fluoro-3-methyltetrahydrofuran-3-yl)piperidin-4-yl)isoquinolin-3-yl)-2-(2-hydroxypropan-2-yl)cyclopropane-1-carboxamide]
IC50: 0.363 nM

CC(C)(O)C1CC1C(=O)Nc1cc2cc(C3CCN(C4(C)COCC4F)CC3)c(Cl)cc2cn1 (single isomer, unassigned) [Ex-6.29, N-(7-chloro-6-(1-(4-fluoro-3-methyltetrahydrofuran-3-yl)piperidin-4-yl)isoquinolin-3-yl)-2-(2-hydroxypropan-2-yl)cyclopropane-1-carboxamide]
IC50: 24.5 nM

Cn1cc(C2CC2C(=O)Nc2cc3cc(C4CCN(C5(C)COCC5F)CC4)c(Cl)cc3cn2)cn1 (single isomer, unassigned) [Ex-6.30, N-(7-chloro-6-(1-(4-fluoro-3-methyltetrahydrofuran-3-yl)piperidin-4-yl)isoquinolin-3-yl)-2-(1-methyl-1H-pyrazol-4-yl)cyclopropane-1-carboxamide]
IC50: 1.45 nM

Cn1cc(C2CC2C(=O)Nc2cc3cc(C4CCN(C5(C)COCC5F)CC4)c(Cl)cc3cn2)cn1 (single isomer, unassigned) [Ex-6.31, N-(7-chloro-6-(1-(4-fluoro-3-methyltetrahydrofuran-3-yl)piperidin-4-yl)isoquinolin-3-yl)-2-(1-methyl-1H-pyrazol-4-yl)cyclopropane-1-carboxamide]
IC50: 0.178 nM

CC1(N2CCC(c3cc4cc(NC(=O)C5CC5c5ccccn5)ncc4cc3Cl)CC2)CCOC1 (single isomer, unassigned) [Ex-6.32, N-(7-chloro-6-(1-(3-methyltetrahydrofuran-3-yl)piperidin-4-yl)isoquinolin-3-yl)-2-(pyridin-2-yl)cyclopropane-1-carboxamide]
IC50: 5.62 nM

CC1(N2CCC(c3cc4cc(NC(=O)C5CC5c5ccccn5)ncc4cc3Cl)CC2)CCOC1 (single isomer, unassigned) [Ex-6.33, N-(7-chloro-6-(1-(3-methyltetrahydrofuran-3-yl)piperidin-4-yl)isoquinolin-3-yl)-2-(pyridin-2-yl)cyclopropane-1-carboxamide]
IC50: 87.1 nM

CC1(N2CCC(c3cc4cc(NC(=O)C5CC5c5ccccn5)ncc4cc3Cl)CC2)CCOC1 (single isomer, unassigned) [Ex-6.34, N-(7-chloro-6-(1-(3-methyltetrahydrofuran-3-yl)piperidin-4-yl)isoquinolin-3-yl)-2-(pyridin-2-yl)cyclopropane-1-carboxamide]
IC50: 0.977 nM

CC1(N2CCC(c3cc4cc(NC(=O)C5CC5c5ccccn5)ncc4cc3Cl)CC2)CCOC1 (single isomer, unassigned) [Ex-6.35, N-(7-chloro-6-(1-(3-methyltetrahydrofuran-3-yl)piperidin-4-yl)isoquinolin-3-yl)-2-(pyridin-2-yl)cyclopropane-1-carboxamide]
IC50: 6.61 nM

CC1(C)CC(C(=O)Nc2cc3cc(C4CCN(C5(C)COCC5F)CC4)c(Cl)cc3cn2)CCO1 (single isomer, unassigned) [Ex-6.36, N-(7-chloro-6-(1-(4-fluoro-3-methyltetrahydrofuran-3-yl)piperidin-4-yl)isoquinolin-3-yl)-2,2-dimethyltetrahydro-2H-pyran-4-carboxamide]
IC50: 0.0813 nM

CC1(C)CC(C(=O)Nc2cc3cc(C4CCN(C5(C)COCC5F)CC4)c(Cl)cc3cn2)CCO1 (single isomer, unassigned) [Ex-6.37, N-(7-chloro-6-(1-(4-fluoro-3-methyltetrahydrofuran-3-yl)piperidin-4-yl)isoquinolin-3-yl)-2,2-dimethyltetrahydro-2H-pyran-4-carboxamide]
IC50: 0.0813 nM

CC1(C)CC(C(=O)Nc2cc3cc(C4CCN(C5(C)COCC5F)CC4)c(Cl)cc3cn2)CCO1 (single isomer, unassigned) [Ex-6.38, N-(7-chloro-6-(1-(4-fluoro-3-methyltetrahydrofuran-3-yl)piperidin-4-yl)isoquinolin-3-yl)-2,2-dimethyltetrahydro-2H-pyran-4-carboxamide]
IC50: 0.871 nM

CC1(C)CC(C(=O)Nc2cc3cc(C4CCN(C5(C)COCC5F)CC4)c(Cl)cc3cn2)CCO1 (single isomer, unassigned) [Ex-6.39, N-(7-chloro-6-(1-(4-fluoro-3-methyltetrahydrofuran-3-yl)piperidin-4-yl)isoquinolin-3-yl)-2,2-dimethyltetrahydro-2H-pyran-4-carboxamide]
IC50: 89.1 nM

CC1(N2CCC(c3cc4cc(NC(=O)C5C6CCOCC65)ncc4cc3Cl)CC2)COCC1F (single isomer, unassigned) [Ex-6.40, N-(7-chloro-6-(1-(4-fluoro-3-methyltetrahydrofuran-3-yl)piperidin-4-yl)isoquinolin-3-yl)-3-oxabicyclo[4.1.0]heptane-7-carboxamide]
IC50: 0.0813 nM

CC1(N2CCC(c3cc4cc(NC(=O)C5C6CCOCC65)ncc4cc3Cl)CC2)COCC1F (single isomer, unassigned) [Ex-6.41, N-(7-chloro-6-(1-(4-fluoro-3-methyltetrahydrofuran-3-yl)piperidin-4-yl)isoquinolin-3-yl)-3-oxabicyclo[4.1.0]heptane-7-carboxamide]
IC50: 0.0813 nM

CC1(N2CCC(c3cc4cc(NC(=O)C5C6CCOCC65)ncc4cc3Cl)CC2)COCC1F (single isomer, unassigned) [Ex-6.42, N-(7-chloro-6-(1-(4-fluoro-3-methyltetrahydrofuran-3-yl)piperidin-4-yl)isoquinolin-3-yl)-3-oxabicyclo[4.1.0]heptane-7-carboxamide]
IC50: 0.38 nM

CC1(N2CCC(c3cc4cc(NC(=O)C5C6CCOCC65)ncc4cc3Cl)CC2)COCC1F (single isomer, unassigned) [Ex-6.43, N-(7-chloro-6-(1-(4-fluoro-3-methyltetrahydrofuran-3-yl)piperidin-4-yl)isoquinolin-3-yl)-3-oxabicyclo[4.1.0]heptane-7-carboxamide]
IC50: 2.82 nM

CC1(C)CC(C(=O)Nc2cc3cc(C4CCN(C5(C)CCOC5)CC4)c(Cl)cc3cn2)CCO1 (single isomer, unassigned) [Ex-6.44, N-(7-chloro-6-(1-(3-methyltetrahydrofuran-3-yl)piperidin-4-yl)isoquinolin-3-yl)-2,2-dimethyltetrahydro-2H-pyran-4-carboxamide]
IC50: 5.37 nM

CC1(C)CC(C(=O)Nc2cc3cc(C4CCN(C5(C)CCOC5)CC4)c(Cl)cc3cn2)CCO1 (single isomer, unassigned) [Ex-6.45, N-(7-chloro-6-(1-(3-methyltetrahydrofuran-3-yl)piperidin-4-yl)isoquinolin-3-yl)-2,2-dimethyltetrahydro-2H-pyran-4-carboxamide]
IC50: 2.14 nM

CC1(C)CC(C(=O)Nc2cc3cc(C4CCN(C5(C)CCOC5)CC4)c(Cl)cc3cn2)CCO1 (single isomer, unassigned) [Ex-6.46, N-(7-chloro-6-(1-(3-methyltetrahydrofuran-3-yl)piperidin-4-yl)isoquinolin-3-yl)-2,2-dimethyltetrahydro-2H-pyran-4-carboxamide]
IC50: 1.2 nM

CC1(C)CC(C(=O)Nc2cc3cc(C4CCN(C5(C)CCOC5)CC4)c(Cl)cc3cn2)CCO1 (single isomer, unassigned) [Ex-6.47, N-(7-chloro-6-(1-(3-methyltetrahydrofuran-3-yl)piperidin-4-yl)isoquinolin-3-yl)-2,2-dimethyltetrahydro-2H-pyran-4-carboxamide]
IC50: 0.724 nM

COC1COCC1N1CCC(c2cc3cc(NC(=O)C4CC45CCOCC5)ncc3cc2Cl)CC1 (single isomer, unassigned) [Ex-6.52, N-(7-chloro-6-(1-(4-methoxytetrahydrofuran-3-yl)piperidin-4-yl)isoquinolin-3-yl)-6-oxaspiro[2.5]octane-1-carboxamide]
IC50: 0.2 nM

COC1COCC1N1CCC(c2cc3cc(NC(=O)C4CC45CCOCC5)ncc3cc2Cl)CC1 (single isomer, unassigned) [Ex-6.53, N-(7-chloro-6-(1-(4-methoxytetrahydrofuran-3-yl)piperidin-4-yl)isoquinolin-3-yl)-6-oxaspiro[2.5]octane-1-carboxamide]
IC50: 3.39 nM

Cn1cc(C(C)(C)C(=O)Nc2cc3cc(C4CCN(C5(C)COCC5F)CC4)c(Cl)cc3cn2)cn1 (single isomer, unassigned) [Ex-6.54, N-(7-chloro-6-(1-(4-fluoro-3-methyltetrahydrofuran-3-yl)piperidin-4-yl)isoquinolin-3-yl)-2-methyl-2-(1-methyl-1H-pyrazol-4-yl)propenamide]
IC50: 27.5 nM

Cn1cc(C(C)(C)C(=O)Nc2cc3cc(C4CCN(C5(C)COCC5F)CC4)c(Cl)cc3cn2)cn1 (single isomer, unassigned) [Ex-6.55, N-(7-chloro-6-(1-(4-fluoro-3-methyltetrahydrofuran-3-yl)piperidin-4-yl)isoquinolin-3-yl)-2-methyl-2-(1-methyl-1H-pyrazol-4-yl)propenamide]
IC50: 447 nM

O=C(Nc1cc2cc(C3CCN([C@@H]4COC[C@@H]4O)CC3)c(Cl)cc2cn1)C1CC12CCOC2 (single isomer, unassigned) [Ex-8.1, N-(7-chloro-6-(1-((3R,4R or 3S,4S)-4-hydroxytetrahydrofuran-3-yl)piperidin-4-yl)isoquinolin-3-yl)-5-oxaspiro[2.4]heptane-1-carboxamide]
LRRK2 pIC50: 10.0
